Target: T1, JAK3 (Homo sapiens, UniProt P52333)
T1 sequence (P52333 1-1124): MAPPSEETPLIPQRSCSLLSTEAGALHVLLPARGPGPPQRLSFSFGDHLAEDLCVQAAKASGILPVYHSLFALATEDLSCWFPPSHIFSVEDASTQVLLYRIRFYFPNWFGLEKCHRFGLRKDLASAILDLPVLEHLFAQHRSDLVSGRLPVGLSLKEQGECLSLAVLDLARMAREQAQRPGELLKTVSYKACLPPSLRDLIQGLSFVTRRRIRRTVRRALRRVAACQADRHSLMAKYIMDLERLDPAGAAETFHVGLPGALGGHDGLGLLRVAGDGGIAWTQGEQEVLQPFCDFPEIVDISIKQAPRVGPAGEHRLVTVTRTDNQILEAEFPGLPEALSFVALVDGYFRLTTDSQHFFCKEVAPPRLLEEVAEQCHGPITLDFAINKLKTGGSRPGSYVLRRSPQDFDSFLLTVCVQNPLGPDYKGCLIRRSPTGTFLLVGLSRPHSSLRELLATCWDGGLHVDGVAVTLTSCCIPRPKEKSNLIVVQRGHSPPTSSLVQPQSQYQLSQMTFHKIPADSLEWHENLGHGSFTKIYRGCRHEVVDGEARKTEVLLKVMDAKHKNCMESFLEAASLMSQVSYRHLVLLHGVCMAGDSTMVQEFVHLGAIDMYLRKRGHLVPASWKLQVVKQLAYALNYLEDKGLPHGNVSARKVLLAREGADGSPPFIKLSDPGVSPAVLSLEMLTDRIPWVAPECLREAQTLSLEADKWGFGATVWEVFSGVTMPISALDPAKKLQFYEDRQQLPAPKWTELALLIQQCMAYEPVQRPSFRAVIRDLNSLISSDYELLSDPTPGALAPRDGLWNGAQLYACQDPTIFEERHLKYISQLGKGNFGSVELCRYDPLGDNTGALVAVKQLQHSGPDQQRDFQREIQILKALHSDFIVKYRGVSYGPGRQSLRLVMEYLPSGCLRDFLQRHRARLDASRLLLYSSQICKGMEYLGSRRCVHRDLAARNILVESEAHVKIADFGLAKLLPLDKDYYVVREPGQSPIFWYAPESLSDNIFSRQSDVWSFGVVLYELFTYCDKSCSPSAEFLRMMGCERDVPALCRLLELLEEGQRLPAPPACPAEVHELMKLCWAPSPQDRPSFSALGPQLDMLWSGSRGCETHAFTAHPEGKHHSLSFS
Assay: JAK3 Inhibition Assay (33P incorporation into poly(Glu)4Tyr)
Type: biochemical
Conditions: for Ki: 1 nM JAK3, 5 μM ATP, 1 μM poly(Glu)4Tyr, 25° C.
Protocol: Compounds were screened for their ability to inhibit JAK3 using the assay shown below. Reactions were carried out in a kinase buffer containing 100 mM HEPES (pH 7.4), 1 mM DTT, 10 mM MgCl2, 25 mM NaCl, and 0.01% BSA. Substrate concentrations in the assay were 5 μM ATP (200 uCi/μmole ATP) and 1 μM poly(Glu)4Tyr. Reactions were carried out at 25° C. and 1 nM JAK3.
To each well of a 96 well polycarbonate plate was added 1.5 μl of a candidate JAK3 inhibitor along with 50 μlof kinase buffer containing 2 μM poly(Glu)4Tyr and 10 μM ATP. This was then mixed and 50 μl of kinase buffer containing 2 nM JAK3 enzyme was added to start the reaction. After 20 minutes at room temperature (25° C.), the reaction was stopped with 50 μl of 20% trichloroacetic acid (TCA) that also contained 0.4 mM ATP. The entire contents of each well were then transferred to a 96 well glass fiber filter plate using a TomTek Cell Harvester. After washing, 60 μl of scintillation fluid was added and ^33P incorporation detected on a Perkin Elmer TopCount.

| Ki [µM] | Compound | further results |
| --- | --- | --- |
| 1 to 10 | CC(C)[C@@H](Nc1ccnc(-c2c[nH]c(C(=O)N3CCCC3)c2)n1)C(=O)NCC(F)(F)F [Compound 113] |  |
| ≤ 1 | CC(C)(Nc1ccnc(-c2c[nH]c(C(=O)N3CCCC3)c2)n1)C(=O)NCC(F)(F)F [Compound 101] |  |
| 1 to 10 | CC(C)(Nc1ccnc(-c2c[nH]c(C(=O)NC3CC3)c2)n1)C(=O)NCC(F)(F)F [Compound 98] |  |
| 1 to 10 | CC(C)C(Nc1nc(-c2c[nH]c(C(=O)N3CCCC3)c2)ncc1F)C(=O)NCC(F)(F)F (stereo not shown) [Compound 107] |  |
| 1 to 10 | O=C(NCc1ccccc1)c1cc(-c2nccc(N3CCC[C@@H]3C(=O)NCC(F)(F)F)n2)c[nH]1 [Compound 121] |  |
| 1 to 10 | CC(C)(Nc1nc(-c2c[nH]c(C(=O)NC3CC3)c2)ncc1F)C(=O)NCC(F)(F)F [Compound 94] |  |
| 10 to 50 | O=C(NCC1CC1)c1cc(-c2ncc(F)c(N3CCC[C@@H]3C(=O)NCC(F)(F)F)n2)c[nH]1 [Compound 118] |  |
| ≤ 1 | O=C(NCC(F)(F)F)[C@H]1CCCN1c1ccnc(-c2c[nH]c(C(=O)N3CC=CC3)c2)n1 [Compound 139] |  |
| 1 to 10 | O=C(NCC(F)(F)F)[C@H]1CCCN1c1ccnc(-c2ccc(O)cc2)n1 [Compound 147] |  |
| 10 to 50 | O=C(NCC(F)(F)F)[C@H]1CCCN1c1nc(-c2ccc3nccnc3c2)ncc1F [Compound 165] |  |
| ≤ 1 | CN(C)C(=O)c1cc(-c2nccc(NC(C)(C)C(=O)NCC(F)(F)F)n2)c[nH]1 [Compound 132] |  |
| 1 to 10 | CCNC(=O)c1cc(-c2ncc(F)c(NC(C)(C)C(=O)NCC(F)(F)F)n2)c[nH]1 [Compound 93] |  |
| 1 to 10 | CC(C)[C@@H](Nc1ccnc(-c2ccc3nccnc3c2)n1)C(=O)NCC(F)(F)F [Compound 164] |  |
| 10 to 50 | CC(C)[C@@H](Nc1nc(-c2ccc(O)cc2)ncc1F)C(=O)NCC(F)(F)F [Compound 142] |  |
| 10 to 50 | CC(C)NC(=O)c1cc(-c2ncc(F)c(NC(C)(C)C(=O)NCC(F)(F)F)n2)c[nH]1 [Compound 96] |  |
| ≤ 1 | CC(C)(Nc1nc(-c2c[nH]c(C(=O)N3CCCC3)c2)ncc1F)C(=O)NCC(F)(F)F [Compound 97] |  |
| ≤ 1 | O=C(NCC(F)(F)F)[C@H]1CCCN1c1nc(-c2c[nH]c(C(=O)N3CC=CC3)c2)ncc1F [Compound 120] |  |

Further lines, the molecule ahead of its results:

| Compound | Ki [µM] | further results |
| --- | --- | --- |
| CC(C)(Nc1ccnc(-c2cccnc2N)n1)C(=O)NCC(F)(F)F [Compound 31] | 1 to 10 |  |
| CC(C)[C@@H](Nc1ccnc(-c2ccc3c(c2)OCO3)n1)C(=O)NCC(F)(F)F [Compound 71] | 10 to 50 |  |
| COc1ccc(Nc2nc(N)n(-c3ncc(F)c(N4CCC[C@@H]4C(=O)NCC(F)(F)F)n3)n2)c(C)c1 [Compound 40] |  | inhibition of JAK3 at concentrations of 5.0 μM: did not inhibit |
| O=C(NCC(F)(F)F)[C@@H]1CCCN1c1nc(-c2cccnc2F)ncc1F [Compound 24] |  | inhibition of JAK3 at concentrations of 50 μM: did not inhibit |
| Nc1nc(Nc2ccc([C@H]3CC[C@H](N4CCOCC4)CC3)cc2)nn1-c1ncc(F)c(N2CCC[C@@H]2C(=O)NCC(F)(F)F)n1 [Compound 49] | 1 to 10 |  |
| C[C@H](Nc1nc(-c2ccc(N)nc2)ncc1F)C(=O)NCC(F)(F)F [Compound 6] | 10 to 50 |  |
| CC(C)(Nc1ccnc(-c2ccc3ncccc3c2)n1)C(=O)NCC(F)(F)F [Compound 75] | ≤ 1 |  |
| CC(C)[C@@H](Nc1ccnc(-c2ccc3nc(N)sc3c2)n1)C(=O)NCC(F)(F)F [Compound 73] | 1 to 10 |  |
| COc1ccc(-c2ncc(F)c(N[C@@H](C(=O)NCC(F)(F)F)C(C)C)n2)cc1 [Compound 145] |  | inhibition of JAK3 at concentrations of 50 μM: did not inhibit |
| CC(C)[C@@H](Nc1nc(-c2ccc3c(c2)OCCO3)ncc1F)C(=O)NCC(F)(F)F [Compound 166] |  | inhibition of JAK3 at concentrations of 50 μM: did not inhibit |
| C[C@@H](Nc1nc(-c2cccnc2F)ncc1F)C(=O)NCC(F)(F)F [Compound 17] |  | inhibition of JAK3 at concentrations of 50 μM: did not inhibit |
| O=C(O)c1cc(-c2ncc(F)c(N3CCC[C@@H]3C(=O)NCC(F)(F)F)n2)c[nH]1 [Compound 127] |  | inhibition of JAK3 at concentrations of 50 μM: did not inhibit |
| Nc1nc(Nc2ccc(F)cc2)nn1-c1ncc(F)c(N2CCC[C@@H]2C(=O)NCC(F)(F)F)n1 [Compound 44] | 1 to 10 |  |
| O=C(NCC(F)(F)F)[C@@H]1CCCN1c1nc(-c2cccnc2)ncc1F [Compound 26] | 1 to 10 |  |
| CC(C)[C@@H](Nc1nc(-c2ccc3c(c2)OCO3)ncc1F)C(=O)NCC(F)(F)F [Compound 76] | 10 to 50 |  |
| COc1ccc(Nc2nc(N)n(-c3nccc(N[C@H](C(=O)NCC(F)(F)F)C(C)C)n3)n2)cc1 [Compound 42] | ≤ 1 |  |
| CCCNc1nc(N)n(-c2ncc(F)c(N3CCC[C@@H]3C(=O)NCC(F)(F)F)n2)n1 [Compound 54] |  | inhibition of JAK3 at concentrations of 5.0 μM: did not inhibit |
| Nc1nc(NCC2CCCO2)nn1-c1ncc(F)c(N2CCC[C@@H]2C(=O)NCC(F)(F)F)n1 (stereo partly shown) [Compound 55] |  | inhibition of JAK3 at concentrations of 5.0 μM: did not inhibit |
| CC(=O)Nc1nc2ccc(-c3ncc(F)c(NC(C)(C)C(=O)NCC(F)(F)F)n3)cc2s1 [Compound 64] | 1 to 10 |  |

| Compound | Ki [µM] | further results |
| --- | --- | --- |
| C[C@H](Nc1nc(-c2cccnc2Cl)ncc1F)C(=O)NCC(F)(F)F [Compound 5] |  | inhibition of JAK3 at concentrations of 50 μM: did not inhibit |
| Nc1nc(NC2CCCCC2)nn1-c1ncc(F)c(N2CCC[C@@H]2C(=O)NCC(F)(F)F)n1 [Compound 47] |  | inhibition of JAK3 at concentrations of 5.0 μM: did not inhibit |
| O=C(NCC(F)(F)F)[C@H]1CCCN1c1nc(-c2ccc(F)nc2)ncc1F [Compound 22] |  | inhibition of JAK3 at concentrations of 50 μM: did not inhibit |
| CC(C)(Nc1ccnc(-c2ccc3nc(N)sc3c2)n1)C(=O)NCC(F)(F)F [Compound 79] | 1 to 10 |  |
| CC(C)(Nc1nc(-c2ccc3c(c2)OCO3)ncc1F)C(=O)NCC(F)(F)F [Compound 67] | 1 to 10 |  |
| CC(C)NC(=O)c1cc(-c2ncc(F)c(N[C@@H](C(=O)NCC(F)(F)F)C(C)C)n2)c[nH]1 [Compound 105] |  | inhibition of JAK3 at concentrations of 50 μM: did not inhibit |
| C[C@H](Nc1nc(-c2cccnc2)ncc1F)C(=O)NCC(F)(F)F [Compound 4] | 1 to 10 |  |
| CC(=O)Nc1nc2ccc(-c3ncc(F)c(N4CCC[C@@H]4C(=O)NCC(F)(F)F)n3)cc2s1 [Compound 92] |  | inhibition of JAK3 at concentrations of 50 μM: did not inhibit |
| O=C(CNc1nc(-c2ccc(F)nc2)ncc1F)NCC(F)(F)F [Compound 9] |  | inhibition of JAK3 at concentrations of 50 μM: did not inhibit |
| CC(C)(Nc1nc(-c2ccc3c(c2)OCCO3)ncc1F)C(=O)NCC(F)(F)F [Compound 125] |  | inhibition of JAK3 at concentrations of 50 μM: did not inhibit |
| Nc1nc(Nc2ccccc2)nn1-c1ncc(F)c(N2CCC[C@@H]2C(=O)NCC(F)(F)F)n1 [Compound 51] | 1 to 10 |  |
| COc1ccc(-c2ncc(F)c(NCC(=O)NCC(F)(F)F)n2)cn1 [Compound 10] |  | inhibition of JAK3 at concentrations of 50 μM: did not inhibit |
| COc1ccc(Nc2nc(N)n(-c3nccc(NC(C)(C)C(=O)NCC(F)(F)F)n3)n2)cc1 [Compound 38] | 1 to 10 |  |
| COc1ccc(-c2ncc(F)c(N3CCC[C@@H]3C(=O)NCC(F)(F)F)n2)cn1 [Compound 91] |  | inhibition of JAK3 at concentrations of 50 μM: did not inhibit |
| O=C(NCC(F)(F)F)[C@H]1CCCN1c1ccnc(-c2ccc(=O)[nH]c2)n1 [Compound 83] | 10 to 50 |  |
| C[C@H](Nc1nc(-c2ccncc2)ncc1F)C(=O)NCC(F)(F)F [Compound 3] |  | inhibition of JAK3 at concentrations of 50 μM: did not inhibit |
| O=C(CNc1nc(-c2cccnc2F)ncc1F)NCC(F)(F)F [Compound 8] | 10 to 50 |  |
| Nc1ncccc1-c1ncc(F)c(NCCC(=O)NCC(F)(F)F)n1 [Compound 30] | 1 to 10 |  |
| CC(C)[C@@H](Nc1nc(-c2ccc3nc(N)sc3c2)ncc1F)C(=O)NCC(F)(F)F [Compound 78] | 1 to 10 |  |

Source: US8686143B2, “Compounds useful as inhibitors of Janus kinases” (Vertex Pharmaceuticals Incorporated, priority 2007, dated 2014)
